Test results from ChEMBL document CHEMBL1201862, “PubChem BioAssay data set” (2004).
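Exposure lasted 48 hours, with cells grown in 96-well plates and compounds tested at five concentrations. Here, GI50 denotes the concentration required for 50% inhibition of growth.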 Activity calls are given as the source filed them. Cut-off read from the data, not from the text of the source: active = GI50 up to about 1.1 µM and inactive = higher.

How the values were obtained:
Test in all cases: growth of human tumour cells (NCI), 48 h
A549 = test system: A549
BT-549 = test system: BT-549
CAKI-1 = test system: CAKI-1
HCC 2998 = test system: HCC 2998
HL-60 = test system: HL-60
HOP-92 = test system: HOP-92
MCF7 = test system: MCF7
MDA-MB-231 = test system: MDA-MB-231
NCI-H23 = test system: NCI-H23
NCI-H522 = test system: NCI-H522
NCI/ADR-RES = test system: NCI/ADR-RES
OVCAR-3 = test system: OVCAR-3
PC-3 = test system: PC-3
SF-268 = test system: SF-268
SF-539 = test system: SF-539
SK-MEL-28 = test system: SK-MEL-28
UO-31 = test system: UO-31
EKVX = test system: EKVX
KM12 = test system: KM12
RXF 393 = test system: RXF 393

Measured: GI50

Nc1ccc(Cc2c(N)[nH]c(=O)[nH]c2=O)cc1
inactive: A549 > 100 µM | BT-549 > 100 µM | CAKI-1 > 100 µM | HCC 2998 > 100 µM | HL-60 85.5 µM | HOP-92 > 100 µM | MCF7 > 100 µM | MDA-MB-231 > 100 µM | NCI-H23 > 100 µM | NCI-H522 > 100 µM | NCI/ADR-RES > 100 µM | OVCAR-3 > 100 µM | PC-3 > 100 µM | SF-268 > 100 µM | SF-539 > 100 µM | SK-MEL-28 > 100 µM | UO-31 > 100 µM

O=C1CCC2=C(CCC2)N1CCc1ccc2c(c1)OCO2
inactive: A549 62.1 µM | BT-549 20.8 µM | CAKI-1 81.8 µM | EKVX 47 µM | HCC 2998 > 100 µM | HL-60 7.62 µM | KM12 62.4 µM | MCF7 60 µM | MDA-MB-231 > 100 µM | NCI-H23 38 µM | NCI-H522 61.1 µM | NCI/ADR-RES 43 µM | PC-3 32.5 µM | RXF 393 1.21 µM | SF-268 77.6 µM | SF-539 > 100 µM | SK-MEL-28 > 100 µM | UO-31 21.6 µM

CC1(F)C=CC(=O)C=C1
inactive: A549 > 100 µM | BT-549 > 100 µM | CAKI-1 55.7 µM | EKVX > 100 µM | HCC 2998 > 100 µM | HL-60 27.6 µM | HOP-92 30.5 µM | KM12 > 100 µM | MCF7 31.8 µM | MDA-MB-231 40.1 µM | NCI-H23 > 100 µM | NCI-H522 37.4 µM | NCI/ADR-RES 17.6 µM | OVCAR-3 > 100 µM | PC-3 69.7 µM | SF-268 > 100 µM | SF-539 37.9 µM | SK-MEL-28 > 100 µM | UO-31 23.6 µM

CCOC(=O)CCC(NC(=O)Cc1ccc(Oc2nc3ccccc3nc2-c2ccccc2)cc1)C(=O)OCC (centres undefined)
inactive: A549 > 100 µM | BT-549 > 100 µM | CAKI-1 > 100 µM | EKVX > 100 µM | HCC 2998 > 100 µM | HL-60 > 100 µM | KM12 > 100 µM | MCF7 91 µM | MDA-MB-231 > 100 µM | NCI-H23 > 100 µM | NCI-H522 34.6 µM | NCI/ADR-RES 70.8 µM | OVCAR-3 96.8 µM | PC-3 41.9 µM | RXF 393 37.6 µM | SF-268 27 µM | SF-539 29.9 µM | SK-MEL-28 > 100 µM | UO-31 52.5 µM

CC(C)CC(=O)NC(C(=O)NC(C(=O)NC(CC(C)C)C(O)CC(=O)NC(C)C(=O)NC(CC(C)C)C(O)CC(=O)O)C(C)C)C(C)C (centres undefined)
inactive: A549 > 100 µM | BT-549 22.1 µM | CAKI-1 > 100 µM | EKVX > 100 µM | HCC 2998 > 100 µM | HOP-92 > 100 µM | KM12 > 100 µM | MCF7 > 100 µM | MDA-MB-231 > 100 µM | NCI-H23 > 100 µM | NCI-H522 > 100 µM | NCI/ADR-RES > 100 µM | OVCAR-3 > 100 µM | PC-3 > 100 µM | SF-268 > 100 µM | SF-539 > 100 µM | SK-MEL-28 > 100 µM | UO-31 > 100 µM

O=C(c1c(Cl)cc(Cl)cc1Cl)N(Cc1cccnc1)C(=S)N(Cc1cccnc1)C(=O)c1c(Cl)cc(Cl)cc1Cl
inactive: A549 32.1 µM | BT-549 2.98 µM | CAKI-1 5.32 µM | EKVX 15.5 µM | HCC 2998 3.12 µM | HL-60 7.23 µM | HOP-92 3.25 µM | KM12 2.97 µM | MCF7 4.52 µM | MDA-MB-231 20.4 µM | NCI-H23 8.67 µM | NCI-H522 6.89 µM | NCI/ADR-RES 11.4 µM | OVCAR-3 3.77 µM | PC-3 5.96 µM | SF-268 6.97 µM | SF-539 11 µM | SK-MEL-28 11 µM | UO-31 5.47 µM

C=CC1ON(C)CCc2cc(OC)c(OC)cc21 (centres undefined)
inactive: A549 > 100 µM | BT-549 > 100 µM | CAKI-1 > 100 µM | EKVX > 100 µM | HCC 2998 > 100 µM | HL-60 > 100 µM | HOP-92 > 100 µM | KM12 > 100 µM | MCF7 1.63 µM | MDA-MB-231 > 100 µM | NCI-H23 > 100 µM | NCI-H522 > 100 µM | NCI/ADR-RES > 100 µM | OVCAR-3 > 100 µM | PC-3 > 100 µM | SF-268 39.6 µM | SF-539 > 100 µM | SK-MEL-28 > 100 µM | UO-31 > 100 µM

O=C(C#Cc1ccccc1)C1=Cc2ccccc2OC1
inactive: A549 9.31 µM | BT-549 2.16 µM | CAKI-1 1.88 µM | EKVX 2.09 µM | HCC 2998 7.38 µM | HL-60 2.19 µM | KM12 4.25 µM | MCF7 1.42 µM | MDA-MB-231 3.21 µM | NCI-H23 2.14 µM | NCI-H522 1.37 µM | NCI/ADR-RES 2.79 µM | OVCAR-3 2.35 µM | PC-3 4.34 µM | RXF 393 3 µM | SF-268 5.5 µM | SF-539 1.93 µM | SK-MEL-28 7.53 µM | UO-31 2.06 µM

CO[C@H](C)[C@](O)(C(=O)OCC1=CCN2CC[C@@H](O)[C@H]12)C(C)C
inactive: A549 > 100 µM | BT-549 > 100 µM | CAKI-1 > 100 µM | EKVX > 100 µM | HCC 2998 > 100 µM | HL-60 > 10 µM | HOP-92 > 100 µM | KM12 > 100 µM | MCF7 > 100 µM | MDA-MB-231 > 100 µM | NCI-H23 > 100 µM | NCI-H522 > 100 µM | NCI/ADR-RES > 100 µM | OVCAR-3 > 100 µM | PC-3 > 100 µM | SF-268 > 100 µM | SF-539 > 100 µM | SK-MEL-28 > 100 µM | UO-31 > 100 µM

COCOc1cc(OC)c(Br)cc1C/C(=N/O)C(=O)OC
inactive: A549 91.6 µM | BT-549 70.1 µM | CAKI-1 48.8 µM | EKVX 49 µM | HCC 2998 > 100 µM | HL-60 52.7 µM | KM12 > 100 µM | MCF7 95.5 µM | MDA-MB-231 42.2 µM | NCI-H23 90.4 µM | NCI-H522 37.9 µM | NCI/ADR-RES 34 µM | OVCAR-3 43.1 µM | PC-3 42.9 µM | RXF 393 28.5 µM | SF-268 39.8 µM | SF-539 > 100 µM | SK-MEL-28 > 100 µM | UO-31 53.7 µM

[O-][N+]1=C2CCC/C(=N/O)C2(O)C2CCCCC21N1CCOCC1 (centres undefined)
inactive: A549 > 100 µM | BT-549 > 100 µM | CAKI-1 > 100 µM | EKVX > 100 µM | HCC 2998 > 100 µM | KM12 > 100 µM | MCF7 > 100 µM | MDA-MB-231 > 100 µM | NCI-H23 > 100 µM | NCI-H522 > 100 µM | NCI/ADR-RES > 100 µM | OVCAR-3 > 100 µM | PC-3 > 100 µM | RXF 393 8.02 µM | SF-268 > 100 µM | SF-539 > 100 µM | SK-MEL-28 > 100 µM | UO-31 > 100 µM
